Results taken from patent US8552037B2, “Tricyclic compound and pharmaceutical use thereof” (Takeda Pharmaceutical Company Limited, priority 2006, dated 2013).

Columns and labels:
[1] = target: human melatonin 1 receptors (human MT1 receptors) (Homo sapiens (Human), UniProt P48039); assay: Melatonin receptor binding assay, 2-[125I] Iodomelatonin, CHO-hMelR7 cell membrane fraction; details: binding inhibition of 2-[125I] Iodomelatonin, CHO-hMelR7 membranes, 25° C., 2.5 hr
Description: (§1) Melatonin Receptor Binding Assay
(1) Preparation of CHO-hMelR7 Cells Expressing Human Melatonin 1 Receptors
(§2) (3) Preparation of Cell Membrane Fraction of CHO Cell (CHO-hMelR7 and CHO-hMT2) Stably Expressing Human MT1 and MT2 Receptors
(§3) CHO-hMelR7 and CHO-hMT2 cells were plated using Cellfactory (Nunc, #170009) under the conditions of 1×10^8 cells/2000 mL/flask. The cells were grown to confluent, and recovered by the following method. As the medium for CHO-hMelR7 and CHO-hMT2, MEM α containing 10% FBS and penicillin/streptomycin was used. […] of geneticin was added to the medium for CHO-hMT2.
(§4) The medium was discarded, cells were washed twice with 200 mL of EDTA/PBS(−), 200 mL of EDTA/PBS(−) was further added, and the cells were stood still at room temperature for 20 min until they were released. […] The mixture was further centrifuged at 1,500 rpm for 10 min at 4° C., and the obtained pellets were suspended in 20 mL of ice-cooled homogenizing buffer [10 mM NaHCO3, 5 mM EDTA, Protease inhibitor Complete (Roche), pH 7.4]. The cell suspension was homogenized 3 times using a polytron homogenizer at 20,000 rpm for 30 sec. The obtained homogenate was centrifuged (2,000 rpm, 10 min, 4° C.) using a low speed cooling centrifuge. The supernatant was recovered in an ultracentrifugation tube and ultracentrifuged (40,000 rpm, 60 min, 4° C.) using an ultracentrifuge (Beckman, L-90K). To the obtained pellets was added a suspending buffer [50 mM Tris-HCl, 1 mM EDTA, Protease inhibitor Complete (Roche), pH 7.4], and the pellets were suspended by pipetting. The protein concentration of this suspension was measured, diluted to 2 mg/mL to give cell membrane fractions of CHO-hMelR7 and CHO-hMT2 cells. […] Protein was quantified using BCA protein assay kit (Pierce) with BSA as the standard.
(§5) (4) Preparation of Membrane Fraction Suspension
(§6) Immediately before use, the membrane fractions of CHO-hMelR7 and CHO-hMT2 cells of the above-mentioned (3) were diluted 20-fold with assay buffer (50 mM Tris-HCl, pH 7.7).
(§7) Iodomelatonin (#NEX236, PerkinElmer) was diluted with the assay buffer to 400 pM for MT1 and 1 nM for MT2.
(§8) Then, a test compound (compound solution diluted with DMSO to 200-fold of the final measurement concentration) was added by 2 μL. 2 μL of DMSO was added to each well of the total binding control section, and 100 μM cold Melatonin solution (Sigma, diluted with DMSO to 100 μM) was added to each well of the nonspecific binding control section by 2 μL. Then, the membrane fraction suspension (100 μL) was added. […] Iodomelatonin solution of the above-mentioned (5) was added to each well mentioned above by 20 μL, and a binding reaction was carried out at 25° C. for 2.5 hr in a micromixer (TAITEC, Bioshaker M.BR-024).
(§9) Using a cell harvester (PerkinElmer), the binding reaction mixture in each well of the 96-well plate was transferred to a treated (immersed in 50 mM Tris, pH 7.7 in advance) filter plate (UniFilter GF/C, PerkinElmer) and filtered. After filtration, the plate was washed 4 times with the assay buffer, and dried in a dryer (42° C.) for 2 hr or more. 25 μL of a liquid scintillator (MicroScint O, PerkinElmer) was added to each well of the filter plate after drying, and the luminescence of scintillator was measured by TopCount (PerkinElmer) for 1 min.
(§10) Specific binding is a value obtained by subtracting nonspecific binding from the total binding. The binding inhibitory activity of the test compound is shown by the ratio of the value obtained by subtracting the measurement value when the test compound was added from the total binding, to the specific binding.

[2] = target: human melatonin 2 receptors (human MT2 receptors) (Homo sapiens (Human), UniProt P49286); assay: Melatonin receptor binding assay, 2-[125I] Iodomelatonin, CHO-hMT2 cell membrane fraction; details: binding inhibition of 2-[125I] Iodomelatonin, CHO-hMT2 membranes, 25° C., 2.5 hr
Description: as §1
(2) Preparation of CHO-hMT2 Cells Expressing Human Melatonin 2 Receptors
CHO-K1 cells (ATCC, #CCL-61) were plated at the concentration of 1.5×10^5 cells/cm^2 in a 6 well plate (ASAHI TECHNO GLASS), and cultured under the conditions of 37° C., 5% CO2 for 24 hr.
as §2, §3, §4, §5, §6, §7, §8, §9, §10

[3] = In vitro metabolic stability test; assay type: in vitro ADME; details: human liver microsome, NADPH production system, 37° C., 20 min incubation, HPLC-UV
Description: In Vitro Metabolic Stability Test
(1) Preparation of Analysis Sample
The necessary amounts of the analysis samples were prepared at the following composition ratio. Test compound mixture: 0.1 mol/L phosphate buffer (pH 7.4) (41 μL), control microsome (manufactured by Gentest, human lymphoblastoid cell-derived control microsome, 10 mg protein/mL) (8 μL), and test compound 0.1 mM methanol solution (1 μL). Microsome mixed solution: 0.1 mol/L phosphate buffer (pH 7.4) (9 μL), human liver microsome (manufactured by XENOTECH, H0610, 20 mg protein/mL) (1 μL), and purified water (20 μL). NADPH production system: 50 mmol/L β-NADP+ (200 μL), 500 mmol/L Glucose-6-phosphate (200 μL), 150 unit/mL Glucose-6-phosphate dehydrogenase (200 μL), 0.1 mol/L MgCl2 (1 mL), and purified water (2.4 mL).
Microsome mixed solution (30 μL) and NADPH production system (20 μL) were sequentially dispensed to each well of a 96 well plate (type 3371, Corning), and a test compound mixture (50 μL) was added. Acetonitrile (100 μL) was added before start of incubation at 37° C. or 20 min later to give samples before and after incubation. These samples were centrifuged (3,000 rpm, 10 min), and the supernatant was dispensed to a 96 well plate by about 100 μL and 2-fold diluted with purified water (100 μL). 90 μL thereof was analyzed by HPLC.
HPLC analysis Conditions • Instrument: Shimadzu LC10vp • Column: CAPCELL PAK C18 MGII (4.6×75 mm, 3 μm) • Mobile phase A: 10 mmol/L ammonium acetate:acetonitrile=9:1 • Mobile phase B: 10 mmol/L ammonium acetate:acetonitrile=1:9 • Flow rate: 1 mL/min • Column temperature: 40° C. • Detection: UV (250 nm) • Gradient: […]
(3) Data Analysis and Results
Elimination percentage was determined from the difference in the unchanged compound peak areas before and after the start of the reaction, normalized based on the reaction time and microsome concentration, and the elimination rate (%/min/mg) was calculated.

human melatonin 2 receptors (human MT2 receptors), sequence (P49286 whole entry): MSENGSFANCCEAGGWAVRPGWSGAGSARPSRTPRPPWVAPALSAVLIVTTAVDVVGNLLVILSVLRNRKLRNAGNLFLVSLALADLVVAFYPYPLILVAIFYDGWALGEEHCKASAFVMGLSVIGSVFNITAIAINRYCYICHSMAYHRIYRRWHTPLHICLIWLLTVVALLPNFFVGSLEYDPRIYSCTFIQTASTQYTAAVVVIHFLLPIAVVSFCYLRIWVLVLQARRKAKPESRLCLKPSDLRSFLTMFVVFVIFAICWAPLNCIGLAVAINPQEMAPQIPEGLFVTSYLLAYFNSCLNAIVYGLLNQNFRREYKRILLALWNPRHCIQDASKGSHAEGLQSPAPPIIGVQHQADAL
human melatonin 1 receptors (human MT1 receptors), sequence (P48039 whole entry): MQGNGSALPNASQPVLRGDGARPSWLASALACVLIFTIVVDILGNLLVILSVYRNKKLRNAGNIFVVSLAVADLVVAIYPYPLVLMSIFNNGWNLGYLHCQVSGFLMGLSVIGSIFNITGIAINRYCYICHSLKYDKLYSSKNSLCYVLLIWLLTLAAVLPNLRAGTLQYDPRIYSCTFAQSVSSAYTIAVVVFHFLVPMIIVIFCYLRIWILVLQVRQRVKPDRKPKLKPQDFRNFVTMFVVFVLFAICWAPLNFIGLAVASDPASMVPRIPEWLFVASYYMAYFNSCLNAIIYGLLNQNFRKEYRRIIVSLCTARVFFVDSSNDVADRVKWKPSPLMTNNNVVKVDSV

For CC(=O)NCC[C@@H]1CCc2ccc3nc(C)oc3c21 [Example 12, (S)-N-[2-(2-Methyl-7,8-dihydro-6H-indeno[5,4-d][1,3]oxazol-8-yl)ethyl]acetamide], the IC50 [1] was 0.057 nM, the IC50 [2] was 0.13 nM and the “elimination rate (%/min/mg)” value [3] was −0.3 %/min/mg.

For CCC(=O)NCC[C@@H]1CCc2ccc3nc(C)oc3c21 [Example 15, (S)-N-[2-(2-Methyl-7,8-dihydro-6H-indeno[5,4-d][1,3]oxazol-8-yl)ethyl]propionamide], the IC50 [1] was 0.03 nM, the IC50 [2] was 0.049 nM and the “elimination rate (%/min/mg)” value [3] was 2.6 %/min/mg.

In the case of CC(=O)NCCC1CCc2ccc3nc(C)sc3c21 (stereo not shown) [Example 19, N-[2-(2-Methyl-7,8-dihydro-6H-indeno[5,4-d][1,3]thiazol-8-yl)ethyl]acetamide], the IC50 [1] is reported as 0.15 nM, the IC50 [2] is reported as 0.28 nM and the “elimination rate (%/min/mg)” value [3] is reported as 2.4 %/min/mg.

For CC(=O)NCC[C@@H]1CCc2ccc3nc(C)sc3c21 [Example 20, (S)-N-[2-(2-Methyl-7,8-dihydro-6H-indeno[5,4-d][1,3]thiazol-8-yl)ethyl]acetamide], the IC50 [1] was 0.038 nM, the IC50 [2] was 0.12 nM and the “elimination rate (%/min/mg)” value [3] was 2.7 %/min/mg.

For COc1nc2ccc3c(c2o1)C(CCNC(C)=O)CC3 (stereo not shown) [Example 38, N-[2-(2-Methoxy-7,8-dihydro-6H-indeno[5,4-d][1,3]oxazol-8-yl)ethyl]acetamide], the IC50 [1] was 0.54 nM, the IC50 [2] was 0.28 nM and the “elimination rate (%/min/mg)” value [3] was 2.6 %/min/mg. For the same molecule, the melting point was 126 to 128 °C.

In the case of Cc1nc2ccc3c(c2o1)C(CCNC(=O)C(F)(F)F)CC3 (stereo not shown) [Example 45, 2,2,2-Trifluoro-N-[2-(2-methyl-7,8-dihydro-6H-indeno[5,4-d][1,3]oxazol-8-yl)ethyl]acetamide], the IC50 [1] is reported as 0.095 nM, the IC50 [2] is reported as 0.14 nM and the melting point is reported as 104 to 106 °C.
